According to ChEMBL document CHEMBL5052836, “Interleukin-15 activity antagonist peptide” (2019):
The source made the active and inactive calls. No cut-off for these calls is given here.

How the values were obtained:
Synovial cell [1] = assay: Inhibition of IL-15-induced IL-6 secretion in human synovial cells at 50 ug/ml and measured after 48 hrs by ELISA relative to control; assay type: functional, cell-based; conditions: dose 50.0 µg/ml
Homo sapiens = species: Homo sapiens; assay: Antagonist activity at IL-15Ralpha (unknown origin) assessed as inhibition of IL-15/IL-15Ralpha complex formation at 20 ug/ml using TMB as substrate incubated for 1 hr and measured after 1 hr by ELISA relative to control; conditions: filed as antagonist, dose 20.0 µg/ml
[2] = Inhibition of cell proliferation in IL-15-induced mouse CTLL-2 cells measured after 72 hrs by MTT assay; assay type: functional, cell-based; conditions: CTLL-2, 72 h
Synovial cell [3] = assay: Inhibition of IL-15-induced TNF-alpha secretion in human synovial cells at 50 ug/ml and measured after 48 hrs by ELISA relative to control; assay type: functional, cell-based; conditions: dose 50.0 µg/ml

CSCC[C@H](NC(=O)[C@@H](C)NC(=O)[C@@H](NC(=O)[C@@H](NC(=O)[C@@H](N)CCCCN)C(C)C)[C@@H](C)O)C(=O)N[C@@H](CCCCN)C(=O)N[C@@H](CSSC[C@H](NC(=O)[C@H](CCCCN)NC(=O)[C@H](CCSC)NC(=O)[C@@H](C)NC(=O)[C@@H](NC(=O)[C@@H](NC(=O)[C@@H](N)CCCCN)C(C)C)[C@@H](C)O)C(=O)N[C@@H](Cc1ccccc1)C(=O)N[C@@H](CC(C)C)C(=O)N[C@@H](CC(C)C)C(=O)O)C(=O)N[C@@H](Cc1ccccc1)C(=O)N[C@@H](CC(C)C)C(=O)N[C@@H](CC(C)C)C(=O)O
inhibition (Synovial cell [1]): Active
inhibition (Homo sapiens): 96%
IC50 [2]: 8 µM
inhibition (Synovial cell [3]): Active

CSCC[C@H](NC(=O)[C@@H](C)NC(=O)[C@@H](NC(=O)[C@@H](NC(=O)[C@@H](N)CCCCN)C(C)C)[C@@H](C)O)C(=O)N[C@@H](CCCCN)C(=O)N[C@H](CSSC[C@@H](NC(=O)[C@H](CCCCN)NC(=O)[C@H](CCSC)NC(=O)[C@@H](C)NC(=O)[C@@H](NC(=O)[C@@H](NC(=O)[C@@H](N)CCCCN)C(C)C)[C@@H](C)O)C(=O)N[C@@H](Cc1ccccc1)C(=O)N[C@@H](CC(C)C)C(=O)N[C@@H](CC(C)C)C(=O)O)C(=O)N[C@@H](Cc1ccccc1)C(=O)N[C@@H](CC(C)C)C(=O)N[C@@H](CC(C)C)C(=O)O
IC50 [2]: 56 µM

CSCC[C@H](NC(=O)[C@H](C)NC(=O)[C@@H](NC(=O)[C@@H](NC(=O)[C@@H](N)CCCCN)C(C)C)[C@@H](C)O)C(=O)N[C@@H](CCCCN)C(=O)N[C@@H](CS)C(=O)N[C@H](Cc1ccccc1)C(=O)N[C@@H](CC(C)C)C(=O)N[C@@H](CC(C)C)C(=O)O
IC50 [2]: 118 µM

CSCC[C@H](NC(=O)[C@H](C)NC(=O)[C@@H](NC(=O)[C@@H](NC(=O)[C@@H](N)CCCCN)C(C)C)[C@@H](C)O)C(=O)N[C@@H](CCCCN)C(=O)N[C@@H](CS)C(=O)N[C@@H](Cc1ccccc1)C(=O)N[C@@H](CC(C)C)C(=O)N[C@H](CC(C)C)C(=O)O
IC50 [2]: 133 µM

CSCC[C@H](NC(=O)[C@@H](C)NC(=O)[C@@H](NC(=O)[C@@H](NC(=O)[C@@H](N)CCCCN)C(C)C)[C@@H](C)O)C(=O)N[C@@H](CCCCN)C(=O)N[C@H](CS)C(=O)N[C@@H](Cc1ccccc1)C(=O)N[C@@H](CC(C)C)C(=O)N[C@@H](CC(C)C)C(=O)O
IC50 [2]: 296 µM

CSCC[C@H](NC(=O)[C@H](C)NC(=O)[C@@H](NC(=O)[C@H](NC(=O)[C@@H](N)CCCCN)C(C)C)[C@@H](C)O)C(=O)N[C@@H](CCCCN)C(=O)N[C@@H](CS)C(=O)N[C@@H](Cc1ccccc1)C(=O)N[C@@H](CC(C)C)C(=O)N[C@@H](CC(C)C)C(=O)O
IC50 [2]: 142 µM

CSCC[C@@H](NC(=O)[C@H](C)NC(=O)[C@@H](NC(=O)[C@@H](NC(=O)[C@@H](N)CCCCN)C(C)C)[C@@H](C)O)C(=O)N[C@@H](CCCCN)C(=O)N[C@@H](CS)C(=O)N[C@@H](Cc1ccccc1)C(=O)N[C@@H](CC(C)C)C(=O)N[C@@H](CC(C)C)C(=O)O
IC50 [2]: 292 µM

CSCC[C@H](NC(=O)[C@H](C)NC(=O)[C@@H](NC(=O)[C@@H](NC(=O)[C@@H](N)CCCCN)C(C)C)[C@@H](C)O)C(=O)N[C@@H](CCCCN)C(=O)N[C@@H](CS)C(=O)N[C@@H](Cc1ccccc1)C(=O)N[C@H](CC(C)C)C(=O)N[C@@H](CC(C)C)C(=O)O
IC50 [2]: 134 µM

CSCC[C@H](NC(=O)[C@H](C)NC(=O)[C@@H](NC(=O)[C@@H](NC(=O)[C@H](N)CCCCN)C(C)C)[C@@H](C)O)C(=O)N[C@@H](CCCCN)C(=O)N[C@@H](CS)C(=O)N[C@@H](Cc1ccccc1)C(=O)N[C@@H](CC(C)C)C(=O)N[C@@H](CC(C)C)C(=O)O
IC50 [2]: 100 µM

CSCC[C@H](NC(=O)[C@@H](C)NC(=O)[C@@H](NC(=O)[C@@H](NC(=O)[C@H](N)CCCCN)C(C)C)[C@@H](C)O)C(=O)N[C@@H](CCCCN)C(=O)N[C@@H](CS)C(=O)N[C@@H](Cc1ccccc1)C(=O)N[C@@H](CC(C)C)C(=O)N[C@@H](CC(C)C)C(=O)O
inhibition (Synovial cell [1]): Active
inhibition (Homo sapiens): 89%
IC50 [2]: 29 µM
inhibition (Synovial cell [3]): Active

CSCC[C@H](NC(=O)[C@H](C)NC(=O)[C@@H](NC(=O)[C@@H](NC(=O)[C@@H](N)CCCCN)C(C)C)[C@@H](C)O)C(=O)N[C@@H](CCCCN)C(=O)N[C@H](CS)C(=O)N[C@@H](Cc1ccccc1)C(=O)N[C@@H](CC(C)C)C(=O)N[C@@H](CC(C)C)C(=O)O
IC50 [2]: 103 µM

CSCC[C@H](NC(=O)[C@@H](C)NC(=O)[C@@H](NC(=O)[C@@H](NC(=O)[C@@H](N)CCCCN)C(C)C)[C@@H](C)O)C(=O)N[C@@H](CCCCN)C(=O)N[C@@H](CS)C(=O)N[C@@H](Cc1ccccc1)C(=O)N[C@@H](CC(C)C)C(=O)N[C@@H](CC(C)C)C(=O)O
inhibition (Synovial cell [1]): Active
inhibition (Homo sapiens): 92%
IC50 [2]: 28 µM
inhibition (Synovial cell [3]): Active

CSCC[C@H](NC(=O)[C@H](C)NC(=O)[C@@H](NC(=O)[C@@H](NC(=O)[C@@H](N)CCCCN)C(C)C)[C@@H](C)O)C(=O)N[C@@H](CCCCN)C(=O)N[C@@H](CS)C(=O)N[C@@H](Cc1ccccc1)C(=O)N[C@@H](CC(C)C)C(=O)N[C@@H](CC(C)C)C(=O)O
inhibition (Homo sapiens): 70%
IC50 [2]: 130 µM

CSCC[C@H](NC(=O)[C@@H](C)NC(=O)[C@@H](NC(=O)[C@@H](NC(=O)[C@H](N)CCCCN)C(C)C)[C@@H](C)O)C(=O)N[C@@H](CCCCN)C(=O)N[C@@H](CSSC[C@H](NC(=O)[C@H](CCCCN)NC(=O)[C@H](CCSC)NC(=O)[C@@H](C)NC(=O)[C@@H](NC(=O)[C@@H](NC(=O)[C@H](N)CCCCN)C(C)C)[C@@H](C)O)C(=O)N[C@@H](Cc1ccccc1)C(=O)N[C@@H](CC(C)C)C(=O)N[C@@H](CC(C)C)C(=O)O)C(=O)N[C@@H](Cc1ccccc1)C(=O)N[C@@H](CC(C)C)C(=O)N[C@@H](CC(C)C)C(=O)O
inhibition (Synovial cell [1]): Active
inhibition (Homo sapiens): 92%
IC50 [2]: 12 µM
inhibition (Synovial cell [3]): Active

CSCC[C@H](NC(=O)[C@H](C)NC(=O)[C@@H](NC(=O)[C@@H](NC(=O)[C@@H](N)CCCCN)C(C)C)[C@@H](C)O)C(=O)N[C@H](CCCCN)C(=O)N[C@@H](CS)C(=O)N[C@@H](Cc1ccccc1)C(=O)N[C@@H](CC(C)C)C(=O)N[C@@H](CC(C)C)C(=O)O
IC50 [2]: 168 µM

CSCC[C@H](NC(=O)[C@H](C)NC(=O)[C@H](NC(=O)[C@@H](NC(=O)[C@@H](N)CCCCN)C(C)C)[C@H](C)O)C(=O)N[C@@H](CCCCN)C(=O)N[C@@H](CS)C(=O)N[C@@H](Cc1ccccc1)C(=O)N[C@@H](CC(C)C)C(=O)N[C@@H](CC(C)C)C(=O)O
IC50 [2]: 159 µM
